According to US11149031B2, “Substituted N-(3-fluoropropyl)-pyrrolidine compounds, processes for their preparation and therapeutic uses thereof” (SANOFI, priority 2016, dated 2021):
Where two headings read alike, the source gives them in different places.

Experiments:
[1] = target: His6-ERα298-554 WT (ERα ligand-binding domain) (Homo sapiens (Human), UniProt P03372); test: Test A: biochemical antagonist activity, LanthaScreen TR-FRET ERα coactivator assay, WT; settings: read-out: Antagonism WT IC50
His6-ERα298-554 WT (ERα ligand-binding domain), sequence (P03372 298-554): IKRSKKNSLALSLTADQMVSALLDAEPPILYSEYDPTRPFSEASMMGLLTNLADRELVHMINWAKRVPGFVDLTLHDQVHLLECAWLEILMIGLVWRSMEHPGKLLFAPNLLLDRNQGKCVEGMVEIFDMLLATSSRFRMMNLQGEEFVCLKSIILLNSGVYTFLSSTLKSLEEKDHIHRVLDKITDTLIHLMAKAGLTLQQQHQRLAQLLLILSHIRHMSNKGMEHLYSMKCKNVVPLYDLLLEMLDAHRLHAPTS
Method in brief: (§1)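 His6-ERα LBD (0.5 nM) with 0.5 nM Tb-anti-His6 antibody, 250 nM PGC1a peptide and 3 nM (or 10 nM) estradiol in 100 mM potassium phosphate pH 7.4 with 5 mM DTT, incubated overnight at room temperature with compound.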

[2] = target: His6-ERα298-554 D538G mutant (ERα ligand-binding domain) (Homo sapiens (Human), UniProt P03372, D538G); test: Test A: biochemical antagonist activity, LanthaScreen TR-FRET ERα coactivator assay, D538G mutant; settings: read-out: Antagonism D538G IC50
His6-ERα298-554 D538G mutant (ERα ligand-binding domain), sequence (P03372 298-554 D538G): as the sequence (P03372 298-554) above, with D241G counted along it
Method in brief: as §1

[3] = target: His6-ERα298-554 Y537S mutant (ERα ligand-binding domain) (Homo sapiens (Human), UniProt P03372, Y537S); test: Test A: biochemical antagonist activity, LanthaScreen TR-FRET ERα coactivator assay, Y537S mutant; settings: read-out: Antagonism Y537S IC50
His6-ERα298-554 Y537S mutant (ERα ligand-binding domain), sequence (P03372 298-554 Y537S): as the sequence (P03372 298-554) above, with Y240S counted along it
Method in brief: as §1

[4] = tested on: MCF7 cells (breast tumor cells) WT; test: Test B: cell proliferation/viability assay (CellTiter-Glo) on MCF7 WT; type: cell-based; settings: Homo sapiens, MCF7, 168 h, 7 days of compound exposure
Method in brief: (§2)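 Compound exposure lasted 7 days (3-0.000001 μM final, 9 points) in phenol red-free MEM with 5% charcoal dextran-stripped FBS. The mutant lines grew without estradiol. Luminescent signal, minus medium-only background, was expressed as percent of untreated cells.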

[5] = tested on: MCF7 cells expressing mutant estrogen receptor Tyr 537 Ser; test: Test B: cell proliferation/viability assay (CellTiter-Glo) on MCF7 Tyr 537 Ser mutant; type: cell-based; settings: Homo sapiens, MCF7, 168 h, MCF7 cells expressing ER Tyr 537 Ser mutant, 7 days of compound exposure, read-out: proliferation MCF7 Y537S IC50
Method in brief: as §2

[6] = tested on: MCF7 cells expressing mutant estrogen receptor Asp 538 Gly; test: Test B: cell proliferation/viability assay (CellTiter-Glo) on MCF7 Asp 538 Gly mutant; type: cell-based; settings: Homo sapiens, MCF7, 168 h, MCF7 cells expressing ER Asp 538 Gly mutant, 7 days of compound exposure, read-out: proliferation MCF7 D538G IC50
Method in brief: as §2

ERα in MCF7 cells = ERα in MCF7 cells (Homo sapiens (Human), UniProt P03372); test: Test C: estrogen receptor degradation activity, ERα in cell western assay in MCF7 cells; type: cell-based; settings: for DC50: 4 hours post compound addition, ERα in cell western, read-out: Degradation IC50; for % Degradation at 3 μM: 4 hours, relative to fulvestrant
ERα in MCF7 cells, sequence (P03372 whole entry): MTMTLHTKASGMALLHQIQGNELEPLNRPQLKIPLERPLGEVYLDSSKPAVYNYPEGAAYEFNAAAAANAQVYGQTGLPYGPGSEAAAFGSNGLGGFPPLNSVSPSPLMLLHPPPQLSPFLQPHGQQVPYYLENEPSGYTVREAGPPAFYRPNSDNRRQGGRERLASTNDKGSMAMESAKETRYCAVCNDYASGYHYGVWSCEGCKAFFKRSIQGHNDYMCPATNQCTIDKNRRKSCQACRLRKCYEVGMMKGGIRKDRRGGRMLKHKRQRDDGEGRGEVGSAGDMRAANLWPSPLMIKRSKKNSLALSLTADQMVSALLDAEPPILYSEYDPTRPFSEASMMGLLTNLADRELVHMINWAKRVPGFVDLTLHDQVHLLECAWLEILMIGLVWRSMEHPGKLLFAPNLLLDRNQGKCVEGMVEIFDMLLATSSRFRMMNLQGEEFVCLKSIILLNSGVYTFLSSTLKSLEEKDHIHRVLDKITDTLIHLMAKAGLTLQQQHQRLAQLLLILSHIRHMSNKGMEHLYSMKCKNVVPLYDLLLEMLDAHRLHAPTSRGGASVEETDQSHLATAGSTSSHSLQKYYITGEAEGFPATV
Method in brief: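 Steps: seed MCF7 in phenol red-free medium containing 5% charcoal-dextran stripped FBS; next day add compound, final 3–0.000018 μM; after 4 h fix with 5% formalin plus 0.1% Triton; stain ERα overnight, then secondary at 37 °C for 60 min with Syto-64 at 2 μM; scan green and red intensities.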

[7] = asterisk (*): protocol using 10 nM estradiol

SMILES	IC50 [1, 7] [nM]	IC50 [2, 7] [nM]	IC50 [3, 7] [nM]	IC50 [4] [nM]	IC50 [5] [nM]	IC50 [6] [nM]	DC50 (ERα in MCF7 cells) [nM]	% Degradation at 3 μM (ERα in MCF7 cells) [%]	IC50 ([1]; protocol with 3 nM estradiol) [nM]	IC50 ([2]; protocol with 3 nM estradiol) [nM]	IC50 ([3]; protocol with 3 nM estradiol) [nM]
Oc1ccc2c(c1)CCCC(c1ccc(SC(F)(F)F)cc1)=C2c1ccc(N[C@H]2CCN(CCCF)C2)cc1 [Example 90, 5-[4-[[(3S)-1-(3-fluoropropyl)pyrrolidin-3-yl]amino]phenyl]-6-[4-(trifluoromethylsulfanyl)phenyl]-8,9-dihydro-7H-benzo[7]annulen-2-ol]	12	293	165	0.3	4	0.5	0.4	91	–	–	–
Cc1ccc(C2=C(c3ccc(O[C@H]4CCN(CCCF)C4)cc3)c3ccc(O)cc3OCC2)c(F)c1 [Example 96, 4-(2-fluoro-4-methyl-phenyl)-5-[4-[(3S)-1-(3-fluoropropyl)pyrrolidin-3-yl]oxyphenyl]-2,3-dihydro-1-benzoxepin-8-ol]	–	–	–	2	16	5	0.6	91	7	47	19
Oc1ccc2c(c1)OCCC(c1ccc(Cl)cc1F)=C2c1ccc(O[C@H]2CCN(CCCF)C2)cc1 [Example 98, 4-(4-chloro-2-fluoro-phenyl)-5-[4-[(3S)-1-(3-fluoropropyl)pyrrolidin-3-yl]oxyphenyl]-2,3-dihydro-1-benzoxepin-8-ol]	–	–	–	0.5	5	2	0.5	93	14	106	40
Oc1ccc2c(c1)OCCC(c1ccc(Cl)cc1Cl)=C2c1ccc(O[C@H]2CCN(CCCF)C2)cc1 [Example 102, 4-(2,4-dichlorophenyl)-5-[4-[(3S)-1-(3-fluoropropyl)pyrrolidin-3-yl]oxyphenyl]-2,3-dihydro-1-benzoxepin-8-ol]	–	–	–	0.5	5	0.8	2	87	12	106	51
Oc1ccc2c(c1)OCCC(c1ccc3cc[nH]c3c1)=C2c1ccc(O[C@H]2CCN(CCCF)C2)cc1 [Example 103, 5-[4-[(3S)-1-(3-fluoropropyl)pyrrolidin-3-yl]oxyphenyl]-4-(1H-indol-6-yl)-2,3-dihydro-1-benzoxepin-8-ol]	–	–	–	0.3	4	1	3	89	38	252	101
Cc1c(Cl)cccc1C1=C(c2ccc(O[C@H]3CCN(CCCF)C3)cc2)c2ccc(O)c(F)c2OCC1 [Example 105, 4-(3-chloro-2-methyl-phenyl)-9-fluoro-5-[4-[(3S)-1-(3-fluoropropyl)pyrrolidin-3-yl]oxyphenyl]-2,3-dihydro-1-benzoxepin-8-ol]	–	–	–	0.5	11	2	0.2	91	5	38	23
Cc1ccc(C2=C(c3ccc(O[C@H]4CCN(CCCF)C4)cc3)c3ccc(O)c(F)c3OCC2)c(F)c1 [Example 106, 9-fluoro-4-(2-fluoro-4-methyl-phenyl)-5-[4-[(3S)-1-(3-fluoropropyl)pyrrolidin-3-yl]oxyphenyl]-2,3-dihydro-1-benzoxepin-8-ol]	–	–	–	0.7	12	3	0.5	90	5	31	16
Oc1ccc2c(c1F)OCCC(c1ccc3c(c1)CCN3)=C2c1ccc(O[C@H]2CCN(CCCF)C2)cc1 [Example 107, 9-fluoro-5-[4-[(3S)-1-(3-fluoropropyl)pyrrolidin-3-yl]oxyphenyl]-4-indolin-5-yl-2,3-dihydro-1-benzoxepin-8-ol]	–	–	–	19	147	33	2	82	19	79	55
Oc1ccc2c(c1)OCCC(c1cccc3[nH]ccc13)=C2c1ccc(O[C@H]2CCN(CCCF)C2)cc1 [Example 110, 5-[4-[(3S)-1-(3-fluoropropyl)pyrrolidin-3-yl]oxyphenyl]-4-(1H-indol-4-yl)-2,3-dihydro-1-benzoxepin-8-ol]	–	–	–	1	45	6	0.2	87	5	39	26
Oc1ccc2c(c1F)OCCC(c1ccc3[nH]ccc3c1)=C2c1ccc(O[C@H]2CCN(CCCF)C2)cc1 [Example 113, 9-fluoro-5-[4-[(3S)-1-(3-fluoropropyl)pyrrolidin-3-yl]oxyphenyl]-4-(1H-indol-5-yl)-2,3-dihydro-1-benzoxepin-8-ol]	–	–	–	5	31	14	0.7	80	6	32	19
Oc1ccc2c(c1)OCCC(c1ccc3c(c1)NCC3)=C2c1ccc(O[C@H]2CCN(CCCF)C2)cc1 [Example 116, 5-[4-[(3S)-1-(3-fluoropropyl)pyrrolidin-3-yl]oxyphenyl]-4-indolin-6-yl-2,3-dihydro-1-benzoxepin-8-ol]	–	–	–	6	150	17	2	88	31	120	86
CCOc1ccc(C2=C(c3ccc(O[C@H]4CCN(CCCF)C4)cc3)c3ccc(O)cc3OCC2)c(C)c1 [Example 119, 4-(4-ethoxy-2-methyl-phenyl)-5-[4-[(3S)-1-(3-fluoropropyl)pyrrolidin-3-yl]oxyphenyl]-2,3-dihydro-1-benzoxepin-8-ol]	–	–	–	0.6	5	0.5	1	91	2	10	6
Oc1ccc2c(c1)OCCC(c1ccc3occc3c1)=C2c1ccc(O[C@H]2CCN(CCCF)C2)cc1 [Example 120, 4-(benzofuran-5-yl)-5-[4-[(3S)-1-(3-fluoropropyl)pyrrolidin-3-yl]oxyphenyl]-2,3-dihydro-1-benzoxepin-8-ol]	–	–	–	1	10	2	0.7	91	2	7	4
COc1ccc(C2=C(c3ccc(O[C@H]4CCN(CCCF)C4)cc3)c3ccc(O)cc3OCC2)c(F)c1 [Example 121, 4-(2-fluoro-4-methoxy-phenyl)-5-[4-[(3S)-1-(3-fluoropropyl)pyrrolidin-3-yl]oxyphenyl]-2,3-dihydro-1-benzoxepin-8-ol]	–	–	–	0.3	3	1	0.2	90	2	27	13
Oc1ccc2c(c1Cl)OCCC(c1cccc3[nH]ccc13)=C2c1ccc(O[C@H]2CCN(CCCF)C2)cc1 [Example 124, 9-chloro-5-[4-[(3S)-1-(3-fluoropropyl)pyrrolidin-3-yl]oxyphenyl]-4-(1H-indol-4-yl)-2,3-dihydro-1-benzoxepin-8-ol]	–	–	–	8	165	33	5	76	22	849	1240
Cc1c(O)ccc2c1OCCC(c1ccc3cc[nH]c3c1)=C2c1ccc(O[C@H]2CCN(CCCF)C2)cc1 [Example 129, 5-[4-[(3S)-1-(3-fluoropropyl)pyrrolidin-3-yl]oxyphenyl]-4-(1H-indol-6-yl)-9-methyl-2,3-dihydro-1-benzoxepin-8-ol]	–	–	–	245	> 999	456	44	75	502	> 4000	2680
